Measured values as given in patent US20230285310A1, “COMPOSITIONS FOR THE DELIVERY OF PAYLOAD MOLECULES TO AIRWAY EPITHELIUM” (ModernaTX, Inc., priority 2020, published 2023).
Where a name gives a salt, the structure may show the parent alone.

Tests used:
respiratory epithelium [1] = test: LNP protein expression in mouse after single dose of mRNA-LNP by intratracheal delivery (anti-V5 IHC); format: in vivo; settings: intratracheal instillation, ~0.7 mpk, NPI-Luc mRNA, core with β-sitosterol for SA23, SA31
Description: (§1) Animals are anesthetized under isoflurane. The tongue is displaced and a small diameter cannula is inserted into the trachea (oropharyngeal route). The cannula tip is passed through the vocal chords, down the trachea so that the tip is very near, but not touching, the carina. Upon placement, 50 μL (mouse) or 200 μL (rat) of formulation is infused into the lungs. After 30 seconds upright, animals are released into a recovery cage and returned to their respective cages once recovered. Trachea, lungs and for the aerosol study nasal cavities, nasopharynx and larynx are collected for analysis. Lungs are inflated with 10% NBF fixative and trachea tied off to maintain inflation. Lungs are removed en bloc with attached trachea, bronchi and lobes. Whole lungs en bloc are fixed in 10% NBF at room temperature for at least 24 hours with a maximum of 48 hours and then removed from fixative and placed in PBS. Samples are immediately sent to be processed for paraffin 5-micron sections and H&E staining. IHC was performed on FFPE sections using the Leica Bond RX autostainer. […] Images were imaged at 20× magnification with the Panoramic 250 Flash III whole slide scanner. Image analysis was completed with Indica Labs HALO image analysis software. […] LNPs were prepared according to Example 2 using NPI-Luc as the mRNA construct. LNPs were delivered to mice by intratracheal instillation for a dose of ˜0.7 mpk. LNP protein expression in respiratory epithelium was evaluated according to sample collection and assay procedures A and B. The results are shown in Table 13a.

respiratory epithelium [2] = test: LNP protein expression in rat after single dose of mRNA-LNP by intratracheal delivery (anti-V5 IHC); format: in vivo; settings: intratracheal instillation, ~1.2 mpk, NPI-Luc mRNA, core with β-sitosterol for SA23
Description: as §1, with “LNPs were delivered to mice by intratracheal instillation for a dose of ˜0.7 mpk.” left out, “13b.” for “13a.”

respiratory epithelium [3] = test: LNP protein expression in rat after single dose of mRNA-LNP by nose-only aerosol delivery (anti-V5 IHC); format: in vivo; settings: LNP per Example 8
Excerpt: Aerosol is generated using a vibrating mesh nebulizer and a defined inlet air flow rate. Aerosol is introduced into the rodent nose-only directed flow exposure chamber by first passing through a mixing chamber before flowing into the exposure tier. Animals are exposed to fresh aerosol at each nose port, which is then exhausted out of the system.
Animals were trained to the nose-only dosing cones for three days prior to initiation of the study. On study day, animals were placed into the dosing cones that were then attached to the aerosol exposure chamber for designated exposure times of 60, 120 or 240 minutes per group for lung doses of 0.4, 0.6 and 1.1 mpk. Animals were monitored continuously throughout the entire exposure and subsequently for any observable adverse reactions. Aerosol concentration (mRNA) and aerodynamic particle size distribution were monitored at the dosing port before and after each dosing occasion to evaluate achieved dose levels and respirable aerosol particle size targets (1-4 μm for rat) respectively.
Trachea, lungs and for the aerosol study nasal cavities, nasopharynx and larynx are collected for analysis. Lungs are inflated with 10% NBF fixative and trachea tied off to maintain inflation. Lungs are removed en bloc with attached trachea, bronchi and lobes. Whole lungs en bloc are fixed in 10% NBF at room temperature for at least 24 hours with a maximum of 48 hours and then removed from fixative and placed in PBS. Samples are immediately sent to be processed for paraffin 5-micron sections and H&E staining.
For the aerosol study, nasal cavities, nasopharynx and larynx were also collected in addition to trachea and lungs.
IHC was performed on FFPE sections using the Leica Bond RX autostainer. NPI-Luc protein expression was detected by anti-V5 tag antibody at a 1:100 dilution. V5 antibody was detected with the Bond Polymer Refine Detection kit followed by hematoxylin and bluing reagent counterstain. Images were imaged at 20× magnification with the Panoramic 250 Flash III whole slide scanner. Image analysis was completed with Indica Labs HALO image analysis software. Trachea, lung and/or nasal cavity images were analyzed to capture total tracheal, bronchial or nasal epithelial cells and data expressed when appropriate as p % V5 positive epithelial cells per total epithelial cells per animal.
LNPs were prepared according to Example 8 using NPI-Luc as the mRNA construct. LNPs were delivered to rats by aerosol delivery using a nose-only aerosol dosing system. LNP protein expression in respiratory epithelium was evaluated according to sample collection and assay procedures A and B. The results are shown in Table 13c. Respiratory epithelium in the nasal cavity, trachea and bronchi were positive for protein expression after aerosol delivery of LNPs.

HeLa cells = test: Protein expression assay in HeLa cells (One-Glo luciferase, NPI-Luc mRNA); format: cell-based, human; settings: 5 h, no serum, 4 wells, sterol amine post-added to LNP core Compound 18, DSPC, Cholesterol plus DMG-PEG 2K (SA3, SA11, SA24, SA26, SA39, SA32), plus Compound 428 (SA4, SA6, SA10, SA16), or plus β-sitosterol and DMG-PEG 2K (SA23, SA29, SA30, SA31)
Description: To evaluate protein expression In Vitro, HeLa cells from ATCC.org (ATCC CCL-2) are used. The cells are cultured in complete Minimum Essential Medium (MEM) and are plated in 96 well Cell Carrier Ultra plate with PDL coated surface (PerkinElmer) prior to running an experiment.
LNPs encapsulating NPI-Luc mRNA were dosed with MEM media in the absence of serum. LNP transfected cell were incubated for 5 h post LNP transfection, the cells were imaged live using Opera Phoenix spinning disk confocal microscope (PerkinElmer). Cells were detected using DAPI (405 nm channel), and image analysis was performed in Harmony 4.9, to quantify the number of cells. After imaging the cells were processed with One-Glo Luciferase assay (Promega) to quantify protein expression. Results were reported in relative luminescence units (RLU) normalized to cells counts.
LNPs were prepared according to Example 2 using NPI-Luc as the mRNA construct. NPI-Luc is a dual read reporter made by adding a 5xV5 tag and a C-myc nuclear localization sequence at the N-terminus of Firefly Luciferase to enhance the signal to noise ratio. Protein expression can be detected using OneGLo assays with luminescence readout or by immunofluorescence with anti-V5 antibodies. Protein expression was evaluated according to the procedure outlined in Example 7. The LNPs are dosed in 4 wells and the average response was reported. For the HeLa assay the luminescence read (RLU) were normalized to cell counts.

[4] = Rat Bronchi (left and right lung)

| Compound | Average % V5 positive cells/total cells (respiratory epithelium [1]; Mouse Bronchi (left lung)) [%] | Average % V5 positive cells/total cells (respiratory epithelium [1]; Mouse Trachea) [%] | Average % V5 positive cells/total cells (respiratory epithelium [2]; [4]) [%] | Average % V5 positive cells/total cells (respiratory epithelium [2]; Rat Trachea) [%] | Average protein expression per cell (RLU per cell) (HeLa cells) | also measured |
| --- | --- | --- | --- | --- | --- | --- |
| CC(C)CCC[C@@H](C)[C@H]1CC[C@H]2[C@@H]3CC=C4C[C@@H](OC(=O)N(CCCN)CCCCNCCCN)CC[C@]4(C)[C@H]3CC[C@]12C [SA3, (3S,8S,9S,10R,13R,14S,17R)-10,13-dimethyl-17-((R)-6-methylheptan-2-yl)-2,3,4,7,8,9,10,11,12,13,14,15,16,17-tetradecahydro-1H-cyclopenta[a]phenanthren-3-yl (3-aminopropyl)(4-((3-aminopropyl)amino)butyl)carbamate, trihydrochloride salt] | 9.33 | 40.7 | 4.95 | 2.97 | – | Average % V5 positive cells/total cells (respiratory epithelium [3]; Rat Bronchi (left and right lung), lung dose 0.4 mpk): 0.13%; Average % V5 positive cells/total cells (respiratory epithelium [3]; Rat Bronchi (left and right lung), lung dose 0.6 mpk): 0.13%; Average % V5 positive cells/total cells (respiratory epithelium [3]; Rat Bronchi (left and right lung), lung dose 1.1 mpk): 0.46%; Average % V5 positive cells/total cells (respiratory epithelium [3]; Rat Nasal Cavity, lung dose 0.4 mpk): 0.64%; Average % V5 positive cells/total cells (respiratory epithelium [3]; Rat Nasal Cavity, lung dose 0.6 mpk): 1.20%; Average % V5 positive cells/total cells (respiratory epithelium [3]; Rat Nasal Cavity, lung dose 1.1 mpk): 2.84%; Average % V5 positive cells/total cells (respiratory epithelium [3]; Rat Trachea, lung dose 0.4 mpk): 0.29%; Average % V5 positive cells/total cells (respiratory epithelium [3]; Rat Trachea, lung dose 0.6 mpk): 0.16%; Average % V5 positive cells/total cells (respiratory epithelium [3]; Rat Trachea, lung dose 1.1 mpk): 0.65% |
| CC(C)CCC[C@@H](C)[C@H]1CC[C@H]2[C@@H]3CC=C4C[C@@H](OC(=O)NCCNC(=N)N)CC[C@]4(C)[C@H]3CC[C@]12C [SA23, (3S,8S,9S,10R,13R,14S,17R)-10,13-dimethyl-17-((R)-6-methylheptan-2-yl)-2,3,4,7,8,9,10,11,12,13,14,15,16,17-tetradecahydro-1H-cyclopenta[a]phenanthren-3-yl (2-guanidinoethyl)carbamate, hydrochloride salt] | 0.98 | 0.8 | 1.38 | 0.83 | 868.8 | – |
| CC(C)CCC[C@@H](C)[C@H]1CC[C@H]2[C@@H]3CC=C4C[C@@H](OC(=O)CCC(=O)N(CCCN)CCCCN)CC[C@]4(C)[C@H]3CC[C@]12C [SA31, (3S,8S,9S,10R,13R,14S,17R)-10,13-Dimethyl-17-((R)-6-methylheptan-2-yl)-2,3,4,7,8,9,10,11,12,13,14,15,16,17-tetradecahydro-1H-cyclopenta[a]phenanthren-3-yl 4-((4-aminobutyl)(3-aminopropyl)amino)-4-oxobutanoate dihydrochloride] | 10.52 | 27.07 | – | – | 643.6 | – |
| CC(C)CCC[C@@H](C)[C@H]1CC[C@H]2[C@@H]3CC=C4C[C@@H](OC(=O)CC5CN6CCC5CC6)CC[C@]4(C)[C@H]3CC[C@]12C (stereo partly drawn) [SA32, (3S,8S,9S,10R,13R,14S,17R)-10,13-Dimethyl-17-((R)-6-methylheptan-2-yl)-2,3,4,7,8,9,10,11,12,13,14,15,16,17-tetradecahydro-1H-cyclopenta[a]phenanthren-3-yl 2-(quinuclidin-3-yl)acetate] | – | – | – | – | 301.8 | – |
| CC(C)CCC[C@@H](C)[C@H]1CC[C@H]2[C@@H]3CC=C4C[C@@H](SSCCC(=O)N(CCCN)CCCCNCCCN)CC[C@]4(C)[C@H]3CC[C@]12C [SA39, N-(3-Aminopropyl)-N-(4-((3-aminopropyl)amino)butyl)-3-(((3S,8S,9S,10R,13R,14S,17R)-10,13-dimethyl-17-((R)-6-methylheptan-2-yl)-2,3,4,7,8,9,10,11,12,13,14,15,16,17-tetradecahydro-1H-cyclopenta[a]phenanthren-3-yl)disulfaneyl)propanamide trihydrochloride] | – | – | – | – | 201.9 | – |
